Source: patent US11612634B2 (priority 2020, dated 2023)
Entries after “also recorded” stand apart in the source; their conditions may differ. Where two headings read alike, the source gives them in different places.

Legend:
Type in all cases: in vivo
[1] = test system: morphine analgesic tolerance, neuropathic pain rat model; conditions: for analgesic effect of morphine restored: after 5-day continuous administration
Method: (1) 15 healthy adult SD rats, weighing 180-220 g, were selected to build a CCI-induced neuropathic pain model. 6 days after the modeling, successful models were randomly divided into 3 groups, where the group A was injected with 0.1 μg/kg of the short peptide P10581; the group B was injected with 5 mg/kg of the morphine; and the group C was injected with 0.1 μg/kg of the short peptide P10581, and then with 5 mg/kg of the morphine 30 min later. 1 h later, the PWT of each group was recorded.
(2) Each group was injected with the drug in the afternoon on the 6th day after the modeling, and from the 7th day to the 12th day, the drug administration was performed at 9:00 a.m. and 5:30 p.m. (5 mg/kg of morphine twice a day; and 0.1 μg/kg of the short peptide P10581 was administered 30 min before the morphine injection). The PWT of rats in each group before and after administration in the morning was measured every other day.
(1) 30 healthy adult SD rats, weighing 180-220 g, were selected to build a CCI-induced neuropathic pain model. Those successfully-established models were randomly divided into 6 groups on the 6th day, where the groups A was injected with normal saline; and the groups B-F were injected with 0.01 μg/kg, 0.025 μg/kg, 0.1 μg/kg, 0.2 μg/kg and 0.4 μg/kg of the short peptide P10581, respectively. 30 min later, the groups A-F were further injected with 5 mg/kg of the morphine, and 1 h later, the PWT of each group was recorded.
(2) Each group was injected with the drug in the afternoon on the 6th day after modeling, and from the 7th day to the 10th day, the drug administration was performed at 9:00 a.m. and 5:30 p.m. (injected twice a day consecutively for 5 days), and the PWT of each group before and after the administration in the morning was measured every other day.
In the FIG. 10B, ΔPWT (drug) and ΔPWT (Baseline) were calculated as follows: ΔPWT(drug)=PWT(post-drug)−PWT(pre-drug); and ΔPWT(Baseline)=PWT(before CCI)−PWT(after CCI).
The intensity of the relieving effect on the tolerance was represented by ΔPWT (drug)/ΔPWT (Baseline), where the ΔPWT (drug) indicated a difference between pain thresholds before and after Mor+P10581 injection in the morning.

[2] = test system: morphine analgesic tolerance, inflammatory pain rat model; test: Effect on morphine analgesic tolerance in Carr-induced inflammatory pain rat model; conditions: for effect on morphine analgesic tolerance: every 2 h
Method: The Carr-induced inflammatory pain model was built according to a published method (Alessandri-Haber N, et al. Neurosci. Vol 29(19), pp. 6217-6288, 2009) for evaluating an analgesic effect of drugs administered by intraplantar injection. Specifically, 6 μL of 1 wt % Carr solution was injected into the rats between the 2nd and 3rd toes of a left hind paw to induce hyperalgesia, which was manifested as plantar swelling and a declined pain threshold of the rats within 1 hour after the injection. Those rats with a PWT lower than 100 gf were considered to be a desired Carr-induced inflammatory pain model, those rats with the PWT higher than 100 gf was removed.
(1) 24 healthy adult SD rats, weighing 180-220 g, were selected, reinjected with 6 μL of a 1 wt % Carr solution and divided into 4 groups randomly and averagely (i.e., groups A-D). The group A was injected with normal saline; the group B was intradermally injected with 0.1 μg/kg of the short peptide P10581 through the plantar surface of the left hind paw; the group C was intradermally injected with 0.1 μg/kg of the short peptide P10581 and then with 5 mg/kg of morphine 30 min later through the plantar surface of the left hind paw; and the group D was intradermally injected with 0.05 μg/kg of the short peptide P10581, and then with 5 mg/kg of morphine 30 min later through the plantar surface of the left hind paw. 1 h later, the PWT of each group was recorded when the mechanical withdrawal of the left hind paw occurred, and each rat was measured 3-5 times at an interval of 5-10 min.
(2) The drug was injected every 2 h according to the above-mentioned administration dose and time (seven times in total), and the PWT was recorded.
(S1) By means of molecular biological techniques, two cysteine residues (Cys10 and Cys11) in the short peptide P10581 were replaced with alanine (Ala), and the resulting peptide was named P10581-1 (SEQ ID NO: 2).
(S2) Three cysteine residues (Cys10, Cys11 and Cys17) in the short peptide P10581 were replaced with alanine (Ala), and the resulting peptide was named P10581-2 (SEQ ID NO: 3).
The rat was injected with 6 μL of 1 wt % Carr to establish a Carr-induced inflammatory pain model, and the effect of the short peptides P10581, P10581-1 and P10581-2 on the morphine analgesic tolerance was analyzed according to Experimental Example 1. […]

[3] = test system: morphine analgesic tolerance, BCP rat model; test: Effect on morphine analgesic tolerance in BCP rat model
Method: The successfully-established BCP model rats were divided into 4 groups randomly on the 22nd day after modeling, where the group A was injected with 0.2 μg/kg of the short peptide P10581; the group B was injected with 0.2 μg/kg of the short peptide P10581, and injected with 5 mg/kg of the morphine 30 min later; the group C was injected with 0.4 μg/kg of the short peptide P10581; and the group D was injected with 0.4 μg/kg of the short peptide P10581, and injected with 5 mg/kg of the morphine 30 min later. 1 h later, the PWT of the right hind paw of each group was recorded. Each of the rats was measured 3-5 times with an interval of 5-10 min, and the PWTs were averaged to taken as the practical PWT (unit: g). The drug administration was performed twice a day (at 9:30 a.m. and 4:30 p.m.) for consecutive 4 days, and the PWT of each group before and after the administration in the morning was measured.
ΔPWT (%) in FIG. 15D was calculated as follows: ΔPWT(%)=100*{[PWT(post-drug)−PWT(pre-drug)]/ΔPWT(Maxi)}(%): […]

Compound | analgesic effect of morphine alone ([1]; rat, in vivo) | effect on morphine analgesic tolerance ([2]; 0.05 μg/kg peptide i.d. 30 min before 5 mg/kg morphine) | duration of eliminating effect on morphine analgesic tolerance ([2]; 0.1 μg/kg and 0.05 μg/kg peptide with 5 mg/kg morphine) | effect on morphine analgesic tolerance ([2]; 0.1 μg/kg peptide i.d. 30 min before 5 mg/kg morphine) | dose at which morphine analgesic tolerance is effectively alleviated ([2]; inflammatory pain, rats) [µg/kg] | effect on morphine analgesic tolerance ([1]; 0.1 μg/kg peptide 30 min before 5 mg/kg morphine, twice a day) | restoration of analgesic effect of morphine ([1]; 0.1 μg/kg peptide + 5 mg/kg morphine, 5th day) | analgesic effect of morphine restored, ΔPWT (drug)/ΔPWT (Baseline) ([1]; 0.2 μg/kg peptide, after 3-day consecutive injection of morphine) [%] | analgesic effect of morphine restored ([1]; 0.2 μg/kg peptide) | effect on morphine analgesic tolerance ([1]; 0.4 μg/kg peptide + 5 mg/kg morphine (FIGS. 10A, 10B)) | effect on morphine analgesic tolerance ([1]; 0.4 μg/kg peptide, after 3-day consecutive injection of morphine) | analgesic effect of morphine restored ([1]; 0.4 μg/kg peptide) | dose at which morphine analgesic tolerance is effectively relieved ([1]; neuropathic pain, rats) [µg/kg] | reversal of morphine analgesic tolerance for BCP ([3]; 0.2 μg/kg peptide S.C. before 5 mg/kg morphine, twice a day, 4 days) [%] | restoration of analgesic effect of morphine on BCP ([3]; 0.4 μg/kg peptide S.C. before 5 mg/kg morphine, repeated) | dose at which morphine analgesic tolerance is effectively eliminated ([3]; BCP, rats) [µg/kg]
CN1CC[C@]23c4c5ccc(O)c4O[C@H]2[C@@H](O)C=C[C@H]3[C@H]1C5 [morphine, reference compound] | almost completely disappeared |  |  |  |  |  |  |  |  |  |  |  |  |  |  | 
WKCNPNDDKCCRPKLKC [P10581] |  | morphine analgesic tolerance can be eliminated; also recorded: completely eliminate the morphine analgesic tolerance | over 14 h | morphine analgesic tolerance can be eliminated; also recorded: completely eliminated | ≥ 0.05 | partially relieved the morphine analgesic tolerance | restored by half | 90.1 | higher than 60% | completely reversed | completely reverse the morphine analgesic tolerance | higher than 85% | ≥ 0.01 | 73.9 | completely restored | ≥ 0.20
